# Where two headings read alike, the source gives them in different places.
# Tests used:
# [1] = test system: human fibroblasts (사람 섬유아세포); assay: MTT cytotoxicity, human fibroblasts; type: cell-based; conditions: 10 ug/ml
# [2] = test system: human umbilical vein endothelial cells (제대정맥혈관내피세포); assay: MTT cytotoxicity, umbilical vein endothelial cells; type: cell-based; conditions: 10 ug/ml
# [3] = test system: human fibroblasts (사람 섬유아세포); assay: Adriamycin-induced senescence, SA-β-gal activity staining, human fibroblasts; type: cell-based
# [4] = test system: human umbilical vein endothelial cells (제대정맥혈관내피세포); assay: Adriamycin-induced senescence, SA-β-gal activity staining, umbilical vein endothelial cells; type: cell-based; conditions: 500 nM adriamycin 4 h, then 10 ug/ml, 3 days
# [5] = test system: reactive oxygen species in human fibroblasts (활성산소, 사람 섬유아세포); assay: Intracellular reactive oxygen species by DCF flow cytometry, adriamycin-treated human fibroblasts; type: cell-based; conditions: 500 nM adriamycin 4 h, 3 days, DCF fluorescence
# [6] = test system: human fibroblasts with replicative senescence (복제노화가 유도된 사람 섬유아세포); assay: Replicative senescence, SA-β-gal activity staining, old human fibroblasts; type: cell-based; conditions: increasing concentrations
# [7] = test system: Caenorhabditis elegans (꼬마선충); conditions: C. elegans, literature; cited from earlier work
# [8] = test system: cellular senescence (세포노화); conditions: cited from earlier work
# mouse model (생쥐모델) = conditions: literature; cited from earlier work
compound,measurement,setting,value
"CC1(C)CC(O)CC2(C)OC(=O)C=C12 (single isomer, unassigned; (-)) [로리오라이드[(-)-loliolide], (-)-loliolide]",cytotoxicity (MTT),[1],세포독성이 관찰되지 않았다
same,cytotoxicity (MTT),[2],세포독성이 관찰되지 않았다
same,SA-β-gal activity staining increased by adriamycin,"[3]; 500 nM adriamycin 4 h, then 10 ug/ml, 3 days",감소되었으나
same,concentration dependence of inhibition of adriamycin-increased SA-β-gal activity,[3]; increasing concentrations,농도를 증가시킬수록 감소함
same,SA-β-gal activity staining increased by adriamycin,[4],변화가 없었다
same,reactive oxygen species increased by adriamycin,[5],활성산소도 감소시킴
same,SA-β-gal activity increased in old cells (replicative senescence),[6],농도 의존적으로 늙은 세포에서 증가된 SA-β-gal 활성을 감소시킴
"Nc1ccc(S(=O)(=O)c2ccc(N)cc2)cc1 [4,4'-diaminodiphenylsulfone]",healthspan,[7],건강수명을 늘리는
same,occurrence of ageing-related diseases,[7],노화관련 질환의 발생을 억제하며
"CC(=O)N[C@@H](CS)C(=O)O [N-아세틸시스테인(N-acetylcysteine), N-acetylcysteine]",inhibition of cellular senescence,[8]; literature; NAC),세포노화 억제 효능이 있는 것으로 보고된
same,inhibition of cellular senescence,[8]; literature,세포노화를 억제한다
CS(=O)(=O)Nc1ccc([N+](=O)[O-])cc1OC1CCCCC1 [NS398],inhibition of cellular senescence,[8]; literature,세포노화를 억제한다
"CO[C@H]1C[C@@H]2CC[C@@H](C)[C@@](O)(O2)C(=O)C(=O)N2CCCC[C@H]2C(=O)O[C@H]([C@H](C)C[C@@H]2CC[C@@H](O)[C@H](OC)C2)CC(=O)[C@H](C)/C=C(\C)[C@@H](O)[C@@H](OC)C(=O)[C@H](C)C[C@H](C)/C=C/C=C/C=C/1C [라파마이신(rapamycin), rapamycin]",inhibition of cellular senescence,[8]; literature,세포노화 억제 효능이 있는 것으로 보고된
same,healthspan,mouse model (생쥐모델),건강수명을 늘리는
same,occurrence of ageing-related diseases,mouse model (생쥐모델),노화관련 질환의 발생을 억제하며
O=C1O[C@H]([C@@H](O)CO)C(O)=C1O [비타민 C],inhibition of cellular senescence,[8]; literature,세포노화를 억제한다
epifriedelanol [에피프리에델라놀(epifriedelanol)],inhibition of cellular senescence,[8]; literature,세포노화를 억제한다

# Reference: KR20140032201A, “로리오라이드를 유효성분으로 함유하는 세포 노화 억제용 조성물” (영남대학교 산학협력단, priority 2012, dated 2014)
